This note sets out measurements from patent US7629150B2, “Transformed cell harboring DNA or RNA encoding sugar chain synthesizing agent having β1,3-N-acetylglucosaminyltransferase activity” (Kyowa Hakko Kirin Co., Ltd., priority 2000, dated 2009).

For one assay, the target named is T1, G6sec2 (Homo sapiens, UniProt Q9BYG0).
T1 construct: made in house; host or cells: Sf21 insect cells infected with pVL1393-F2G6sec2-derived recombinant baculovirus
T1 sequence (Q9BYG0 39-378): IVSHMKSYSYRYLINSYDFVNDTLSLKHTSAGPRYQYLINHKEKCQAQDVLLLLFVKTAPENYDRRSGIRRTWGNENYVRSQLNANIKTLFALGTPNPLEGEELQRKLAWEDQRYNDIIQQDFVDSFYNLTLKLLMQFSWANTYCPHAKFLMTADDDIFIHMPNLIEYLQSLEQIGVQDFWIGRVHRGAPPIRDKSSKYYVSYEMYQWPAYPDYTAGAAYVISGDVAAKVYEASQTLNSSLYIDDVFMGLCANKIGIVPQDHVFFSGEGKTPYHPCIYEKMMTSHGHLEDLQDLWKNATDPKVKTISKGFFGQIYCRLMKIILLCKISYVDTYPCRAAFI
Briefly: GlcNAc β1,3-galactosyltransferase activity measurement. It counts as biochemical. As to conditions: 2-aminobenzamide-labeled substrate 88 μmol/l; UDP-Gal; 37° C., 16 hours. Here is the method:
(§1) The β1,3-galactosyltransferase activity measurement was carried out according to a conventional method [J. Biol. Chem., 274, 12499-12507 (1999)]. The reaction was carried out at 37° C. for 16 hours in 20 μl of an assay solution [14 mmol/l HEPES (pH 7.4), 75 μmol/l UDP-Gal (manufactured by SIGMA), 11 mmol/l MnCl2, 88 μmol/l sugar chain substrate, the above purified enzyme]. The amount of the enzyme used was the same as the amount used in the measurement of β1,3-N-acetylglucosaminyltransferase. As a substrate, 2-aminobenzamide-labeled GlcNAcβ1-3Galβ1-4GlcNAcβ1-3Galβ1-4GlcNAc (hereinafter referred to as “GlcNAc-2LN”) was used. The sugar chain was prepared by treating 2-aminobenzamide-labeled LN3 with β-galactosidase and thereby removing the terminal galactose residue. Specifically, 100 milli-units of β-galactosidase (manufactured by Seikagaku Corporation) were added to about 60 nmol of 2-aminobenzamide-labeled LN3, the reaction was carried out at 37° C. for 16 hours, and the sugar chain was prepared by inactivating β-galactosidase through its heat treatment at 100° C. for 5 minutes.

The next assay concerns the target T2, G6sec1 (Homo sapiens, UniProt Q9BYG0).
T2 construct: made in house; host or cells: Sf21 insect cells infected with pVL1393-F2G6sec1-derived recombinant baculovirus
T2 sequence (Q9BYG0 36-378): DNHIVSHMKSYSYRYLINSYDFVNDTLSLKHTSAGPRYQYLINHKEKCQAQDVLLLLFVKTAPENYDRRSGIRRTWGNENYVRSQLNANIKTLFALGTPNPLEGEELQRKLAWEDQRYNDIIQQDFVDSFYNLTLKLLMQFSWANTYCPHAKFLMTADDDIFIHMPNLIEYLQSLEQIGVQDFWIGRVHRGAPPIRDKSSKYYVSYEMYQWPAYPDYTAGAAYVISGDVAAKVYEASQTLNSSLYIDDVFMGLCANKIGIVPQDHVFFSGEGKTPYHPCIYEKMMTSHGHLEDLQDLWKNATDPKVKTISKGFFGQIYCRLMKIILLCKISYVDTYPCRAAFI
Described as above. It counts as biochemical. As to conditions: 2-aminobenzamide-labeled substrate 88 μmol/l; UDP-Gal; 37° C., 16 hours. Here is the method: as §1

As to “GlcNAcβ1-3Galβ1-4GlcNAcβ1-3Galβ1-4GlcNAc [GlcNAc-2LN]”, the “GlcNAc β1,3-galactosyltransferase activity” value at G6sec2 and on G6sec1 was “did not show” each time.
